Source: the NIST ThermoML archive (doi:10.1016/j.jct.2004.12.008)

Test: xn = mol fraction of the nth substance listed
Conditions: 101 kPa, Liquid

O=[N+]([O-])c1ccccc1 [nitrobenzene] + Cc1ccccc1
Conditions	mass density [kg/m3]
293.15 K, x2 = 0	1202.95
293.15 K, x2 = 0.0629	1181.81
293.15 K, x2 = 0.1476	1153.37
293.15 K, x2 = 0.2138	1131.14
293.15 K, x2 = 0.2787	1109.35
293.15 K, x2 = 0.3587	1082.5
293.15 K, x2 = 0.4142	1063.89
293.15 K, x2 = 0.4831	1040.77
293.15 K, x2 = 0.5232	1027.31
293.15 K, x2 = 0.5771	1009.22
293.15 K, x2 = 0.6321	990.75
293.15 K, x2 = 0.6832	973.59
293.15 K, x2 = 0.7234	960.08
293.15 K, x2 = 0.8032	933.21
293.15 K, x2 = 0.8562	915.34
293.15 K, x2 = 0.9213	893.37
303.15 K, x2 = 0	1193.56
303.15 K, x2 = 0.0567	1174.37
303.15 K, x2 = 0.1332	1148.52
303.15 K, x2 = 0.185	1131.03
303.15 K, x2 = 0.2304	1115.73
303.15 K, x2 = 0.2798	1099.1
303.15 K, x2 = 0.3674	1069.64
303.15 K, x2 = 0.4026	1057.82
303.15 K, x2 = 0.4656	1036.69
303.15 K, x2 = 0.5072	1022.73
303.15 K, x2 = 0.5782	998.94
303.15 K, x2 = 0.6576	972.35
303.15 K, x2 = 0.7235	950.27
303.15 K, x2 = 0.7965	925.82
303.15 K, x2 = 0.8643	903.09
303.15 K, x2 = 0.9354	879.23
313.15 K, x2 = 0	1183.37
313.15 K, x2 = 0.0674	1160.46
313.15 K, x2 = 0.1534	1131.33
313.15 K, x2 = 0.1978	1116.33
313.15 K, x2 = 0.2576	1096.15
313.15 K, x2 = 0.3254	1073.34
313.15 K, x2 = 0.3789	1055.38
313.15 K, x2 = 0.4577	1028.98
313.15 K, x2 = 0.5067	1012.59
313.15 K, x2 = 0.5564	996
313.15 K, x2 = 0.6134	976.98
313.15 K, x2 = 0.674	956.78
313.15 K, x2 = 0.7435	933.64
313.15 K, x2 = 0.8134	910.37
313.15 K, x2 = 0.865	893.2
313.15 K, x2 = 0.9134	877.09
323.15 K, x2 = 0	1172.38
323.15 K, x2 = 0.0479	1156.07
323.15 K, x2 = 0.1289	1128.59
323.15 K, x2 = 0.1874	1108.81
323.15 K, x2 = 0.2671	1081.99
323.15 K, x2 = 0.3371	1058.51
323.15 K, x2 = 0.3961	1038.77
323.15 K, x2 = 0.4628	1016.54
323.15 K, x2 = 0.5342	992.79
323.15 K, x2 = 0.6056	969.11
323.15 K, x2 = 0.6854	942.7
323.15 K, x2 = 0.7245	929.78
323.15 K, x2 = 0.8056	903.01
323.15 K, x2 = 0.8543	886.94
323.15 K, x2 = 0.8965	873.03
323.15 K, x2 = 0.9423	857.93
333.15 K, x2 = 0	1160.59
333.15 K, x2 = 0.0575	1141.04
333.15 K, x2 = 0.1435	1111.97
333.15 K, x2 = 0.2345	1081.38
333.15 K, x2 = 0.2978	1060.21
333.15 K, x2 = 0.3534	1041.68
333.15 K, x2 = 0.4213	1019.15
333.15 K, x2 = 0.4896	996.55
333.15 K, x2 = 0.5634	972.23
333.15 K, x2 = 0.6233	952.54
333.15 K, x2 = 0.6856	932.12
333.15 K, x2 = 0.7435	913.17
333.15 K, x2 = 0.7947	896.44
333.15 K, x2 = 0.8634	874.02
333.15 K, x2 = 0.9067	859.9
333.15 K, x2 = 0.9424	848.26
343.15 K, x2 = 0	1148
343.15 K, x2 = 0.0523	1130.3
343.15 K, x2 = 0.1389	1101.17
343.15 K, x2 = 0.1924	1083.27
343.15 K, x2 = 0.2684	1057.97
343.15 K, x2 = 0.3289	1037.94
343.15 K, x2 = 0.3889	1018.15
343.15 K, x2 = 0.4521	997.4
343.15 K, x2 = 0.5123	977.7
343.15 K, x2 = 0.5931	951.38
343.15 K, x2 = 0.6532	931.86
343.15 K, x2 = 0.7234	909.14
343.15 K, x2 = 0.7923	886.89
343.15 K, x2 = 0.8534	867.19
343.15 K, x2 = 0.8811	858.27
343.15 K, x2 = 0.9421	838.64
353.15 K, x2 = 0	1134.61
353.15 K, x2 = 0.0442	1119.76
353.15 K, x2 = 0.1247	1092.87
353.15 K, x2 = 0.1842	1073.14
353.15 K, x2 = 0.2479	1052.11
353.15 K, x2 = 0.2943	1036.87
353.15 K, x2 = 0.3479	1019.33
353.15 K, x2 = 0.4109	998.83
353.15 K, x2 = 0.4671	980.61
353.15 K, x2 = 0.5239	962.27
353.15 K, x2 = 0.5791	944.5
353.15 K, x2 = 0.6321	927.5
353.15 K, x2 = 0.7913	876.69
353.15 K, x2 = 0.8423	860.48
353.15 K, x2 = 0.8742	850.36
353.15 K, x2 = 0.9311	832.32
